Laboratory results: US20210386668A1, “Cyclodextrin for use in the treatment and prevention of late phase bronchoconstriction in allergen-induced asthma” (Universite de Liege, priority 2020, published 2021)

Experiments:
[1] = test system: BALB/c mice, OVA induced inflammation and AHR; assay: Ovalbumin-induced airway inflammation and AHR mouse model; type: in vivo; details: HPBCD 10 mM inhalation
Method: (§1) Two intranasal instillations of house dust mite were performed on days 0 and 7 to induce the migration of specific memory CD4+ T-cells into lung parenchyma, followed by a challenge instillation on day 14. […] The last house dust mite instillation was preceded by two days of HPBCD or PBS inhalations and followed by three inhalations until sacrifice (FIG. 1A). […] Airway responsiveness was evaluated by exposing animals to increasing doses of inhaled methacholine and by measuring Newtonian resistances representing the resistance of central or conducting airways. […] The bronchoalveolar lavage fluid (BALF) was then recovered and analyzed for cell content. […] The effect of HPBCD inhalation on T-cell numbers in lung parenchyma was investigated by flow cytometry.
Mice were lightly isoflurane-anesthetized and received an intra-nasal (i.n) instillation of HDM extract (100 μg; 50 μl) in endotoxin-free saline on days 0, 7 and 14. Mice were subjected to inhalation (generated by ultrasonic nebulizer (Devilbiss 2000)) of HPBCD 10 mM or endotoxin-free saline for 40 minutes between day 12 and 16. On day 14, they received the inhalation 1 h before the last i.n. instillation of HDM. After measurement of bronchial responsiveness using the FlexiVent System, mice were sacrificed on day 17. Mice submitted to ovalbumin as allergen were i.p injected with 10 mcg ovalbumin grade 5 and exposed to ovalbumin grade 3 by inhalation between day 21 and 25. Mice were treated with HPBCD 10 mM given by inhalation between day 19 and 25. […]
Mice were anesthetized by intraperitoneal injection with a mixture of ketamine (10 mg/ml, Merial, Brussel, Belgium) and xylazine (1 mg/ml, VMD, Arendonk, Belgium). […] Respiratory parameters following methacholine challenge (3, 6, and 12 gr/l (or 24 gr/l)) were evaluated using a 3 sec broadband signal to measure input impedance from 1 to 20.5 Hz and to calculate constant-phase model parameters (Quick-prime 3). Newtonian resistance (Rn) was the main parameter measured during the challenge. […]

[2] = test system: BALB/c mice, house dust mite (HDM)-induced inflammation and AHR; type: in vivo
Method: The impact of HPBCD on asthma-associated inflammation and bronchial hyperresponsiveness was investigated in a mouse model of airway inflammation and hyperresponsiveness.
Six to seven mice per group were tested. Two-tailed Mann-Whitney test were performed with p-values of *P<0.05, **P<0.01 in two independent experiments.
as §1
Males BALB/c mice of 6 to 8 weeks old were purchased from Janvier Labs (Saint-Berthevin, France). All mice were bred and housed in University facilities. All experiences and protocols were previously approved by local ethic (animal care and use) committee from the University of Liege.
Mice were lightly isoflurane-anesthetized and received an intra-nasal (i.n) instillation of HDM extract (100 μg; 50 μl) in endotoxin-free saline on days 0, 7 and 14. Mice were subjected to inhalation (generated by ultrasonic nebulizer (Devilbiss 2000)) of HPBCD 10 mM or endotoxin-free saline for 40 minutes between day 12 and 16. On day 14, they received the inhalation 1 h before the last i.n. instillation of HDM. After measurement of bronchial responsiveness using the FlexiVent System, mice were sacrificed on day 17. Mice submitted to ovalbumin as allergen were i.p injected with 10 mcg ovalbumin grade 5 and exposed to ovalbumin grade 3 by inhalation between day 21 and 25. Mice were treated with HPBCD 10 mM given by inhalation between day 19 and 25. After measurement of bronchial responsiveness using the FlexiVent System, mice were sacrificed on day 26.
Mice were anesthetized by intraperitoneal injection with a mixture of ketamine (10 mg/ml, Merial, Brussel, Belgium) and xylazine (1 mg/ml, VMD, Arendonk, Belgium). A tracheotomy was performed by insertion of a 20 gauge polyethylene catheter into the trachea. Mice were ventilated with a flexiVent small animal Ventilator® (SCIREQ, Montreal, Canada) as previously described (18). Respiratory parameters following methacholine challenge (3, 6, and 12 gr/l (or 24 gr/l)) were evaluated using a 3 sec broadband signal to measure input impedance from 1 to 20.5 Hz and to calculate constant-phase model parameters (Quick-prime 3). Newtonian resistance (Rn) was the main parameter measured during the challenge.
Mice were sacrificed and a bronchoalveolar lavage was performed using PBS-EDTA 0.05 mM (Calbiochem, Darmstadt, Germany). Cells were recovered by gentle manual aspiration. After centrifugation of bronchoalveolar fluid (BALF) (1200 rpm; 10 min; 4° C.), the cell pellet was resuspended in 0.5 ml PBS-EDTA 0.05 mM. The differential cell counts were performed on cytocentrifuged preparations (Cytospin) after Diff-Quick (Dade, Belgium) staining.
Left lung was excised and snap frozen in liquid nitrogen. Right lung was infused with 4% paraformaldehyde, embedded in paraffin and used for histology. Sections of 5 μm thickness were cut off from paraffin and were stained with haematoxylin-eosin to estimate the extent of inflammation (18) and with Alcian blue (mucin stain).
To obtain single-lung-cell suspensions, lungs were perfused with 10 ml HBSS through the right ventricle, razor-cut into small pieces and digested for 1 hour at 37° C. in 1 mg/ml collagenase A (Roche) and 0.05 mg/ml DNasel (Roche) in HBSS. […]

[3] = test system: naïve CD4+ T cells (Balb/c); assay: In-vitro T-cell proliferation assay (BrdU incorporation, IL-2 secretion); type: cell-based, mice; details: HPBCD 5 mM, 48 h incubation
Method: The term “T-cell proliferation” means an increase in T-cells over a given period of time. In one embodiment, T-cell proliferation is measured by flow cytometry analysis of lung TH2 cells and total leukocyte counts. An exemplary embodiment of a way to measure T-cell proliferation is given in example 1 below. In one embodiment, naïve CD4+ T cells are exposed to HPBCD at a concentration of 5 mM and an anti-CD3 (3 mcg/ml) for 24 hours or 48 hours with HPBCD (5 mM) or with culture medium alone at 37° C. 5% CO2. During the last 2 hours of the proliferation test, Bromodeoxyuridine is added to the medium and incorporation is quantified by ELISA. IL-2 secretion is measured in the medium after 24 hours and 48 hours of anti-CD3 stimulation through ELISA. HPBCD was used at a concentration of 5 mM. […] Naïve CD4+ T cells were isolated from Balb/c mice spleen and purified with a MACS® negative selection kit. 1.5×10^5 cells were seeded in a 96 well plate and incubated with HPBCD 5 mM (in RPMI 10% FBS 1% pen/strep) or with medium alone for 3 h. Cells were then recovered and plated in an anti-CD3 (3 mcg/ml) coated well for 24 or 48 h with HPBCD (5 mM) or with culture medium alone at 37° C. 5% CO2. During the last 2 h of the proliferation test, BrdU was added to medium and incorporation was quantified by ELISA following manufacturer instructions. […]

## CC(O)COC[C@H]1O[C@@H]2O[C@H]3[C@H](O)[C@@H](O)[C@@H](O[C@H]4[C@H](O)[C@@H](O)[C@@H](O[C@H]5[C@H](O)[C@@H](O)[C@@H](O[C@H]6[C@H](O)[C@@H](O)[C@@H](O[C@H]7[C@H](O)[C@@H](O)[C@@H](O[C@H]8[C@H](O)[C@@H](O)[C@@H](O[C@H]1[C@H](O)[C@H]2O)O[C@@H]8COCC(C)O)O[C@@H]7COCC(C)O)O[C@@H]6COCC(C)O)O[C@@H]5COCC(C)O)O[C@@H]4COCC(C)O)O[C@@H]3COCC(C)O (stereo partly drawn) [HPBCD, 2-hydroxypropyl-beta-cyclodextrin]
[1]; FIG. 2B
  airway hyperresponsiveness induced by ovalbumin: significantly decrease
[1]; FIG. 2C
  number of inflammatory cells in BALF: significantly decrease
[1]; FIG. 2D
  number of eosinophils around the bronchi: significantly decrease
[2]; HPBCD 10 mM inhalation vs PBS, HDM-challenged mice, FIG. 1B
  airway responsiveness to methacholine (Newtonian resistance): significantly decreased
[2]; HPBCD vs placebo, FIG. 1D
  extent of inflammation around the bronchi: reduced
[2]; HPBCD vs placebo, FIG. 1E
  number of Alcian blue positive mucus producing epithelial cells: reduced
[2]; HPBCD-exposed vs placebo, FIG. 1C
  eosinophilic inflammation in BALF: significantly decreased
[2]; mouse, in vivo
  number of TH2 cells (CD3+CD4+T1ST2+ ICOS+) in lung parenchyma: nor the number of TH2 cells (CD3+CD4+T1ST2+ ICOS+) were modified
  number of total CD4+ T-cells (CD3+CD4+) in lung parenchyma: Neither the number of total CD4+ T-cells (CD3+CD4+) nor the number of TH2 cells (CD3+CD4+T1ST2+ ICOS+) were modified
[3]
  cytotoxicity (BrdU incorporation): not associated with cytotoxicity
